Experimental data reported in paper PMC8745263 (International Journal of Molecular Sciences, 2021).
Entries after “also recorded” stand apart in the source; their conditions may differ. Square brackets hold non-standard residues; d marks the D form. Peptide text beside a SMILES is read from it. Met(O) = CS(=O)CC[C@H](N)C(=O)O

Experiments:
[1] = molecular target: T1, APEH partially purified from human blood cells (Homo sapiens, UniProt P13798); test: Treatment of peptides with APEH and assessment of proteolysis by LC-MS; assay type: biochemical; conditions: 10 nmol/200 μL peptide, APEH 0.7 μg, 37 °C, 48 h; for % fragment cleaved on carboxy side of H59 (Ac-...HTH, lacking LVQQA), percentage of the initial substrate / % fragment cleaved on carboxy side of Q62 (Ac-...HTHLVQ, lacking QA), percentage of the initial substrate / % intact peptide left after APEH exposure (percentage of the initial substrate): Tris-HCl 25 mM pH 7.5, EIC peak areas, average of three independent experiments; for % Degradation (overall % of peptide degraded upon exposure to APEH): sum of fragment % of Table 2(a), Tris-HCl 25 mM pH 7.5, N.D. = not degraded
T1 construct: incubated with APEH partially purified from human blood cells; from tissue; host or cells: human red blood cells (erythrocyte hemolysate from donors' blood)
T1 sequence (P13798 1-732): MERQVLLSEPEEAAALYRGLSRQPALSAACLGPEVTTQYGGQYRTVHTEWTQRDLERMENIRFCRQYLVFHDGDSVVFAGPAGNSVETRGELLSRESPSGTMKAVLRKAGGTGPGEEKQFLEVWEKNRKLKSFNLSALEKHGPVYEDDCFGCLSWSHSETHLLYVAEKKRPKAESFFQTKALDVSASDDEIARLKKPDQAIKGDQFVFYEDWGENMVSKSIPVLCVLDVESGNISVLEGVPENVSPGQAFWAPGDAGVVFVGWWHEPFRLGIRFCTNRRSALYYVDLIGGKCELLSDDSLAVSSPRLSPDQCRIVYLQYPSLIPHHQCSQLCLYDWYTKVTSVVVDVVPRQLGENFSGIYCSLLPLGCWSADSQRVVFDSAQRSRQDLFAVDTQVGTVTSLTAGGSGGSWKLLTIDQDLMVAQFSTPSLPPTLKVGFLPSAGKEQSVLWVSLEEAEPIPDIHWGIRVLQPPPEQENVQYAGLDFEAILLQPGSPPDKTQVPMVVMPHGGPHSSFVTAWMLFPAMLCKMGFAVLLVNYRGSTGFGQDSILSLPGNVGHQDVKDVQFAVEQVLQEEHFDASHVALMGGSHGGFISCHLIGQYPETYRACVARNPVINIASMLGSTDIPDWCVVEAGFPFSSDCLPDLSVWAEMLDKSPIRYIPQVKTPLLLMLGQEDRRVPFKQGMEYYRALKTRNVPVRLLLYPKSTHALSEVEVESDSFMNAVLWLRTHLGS
Procedure: In order to identify the potential cleavage sites of APEH on the oxidized GDF11[48-64], the peptide was incubated alone or in combination with the enzyme and the corresponding reaction mixtures were analyzed by LC-MS. The same experiments were performed using the non-oxidized analogues as control.
Blood samples were taken from donors using syringes with heparin. In accordance with ethical principles stated in the Declaration of Helsinki, as well as with approved national and international guidelines for human research, a written informed consent was obtained from participants. The erythrocytes were separated from the plasma by centrifugation at 1800× g for 5 min at 4 °C and washed twice with an isotonic solution (10 mM Tris-HCl pH 7.6, […]; 4 °C). Lysis of erythrocytes was carried out by incubation in hypotonic solution (25 mM Tris/HCl, pH 7.5) for 30 min on ice. The hemolysate was obtained by centrifugation of the lysate at 9200× g for 40 min at 4 °C. Then, the ‘soluble fraction’ was loaded onto a DEAE Sepharose Fast Flow column, connected to an AKTA FPLC system (Amersham Biosciences, Amersham, UK), previously equilibrated in 25 mM Tris-HCl (pH 7.5) (buffer A). The bound proteins were eluted using a linear ionic strength gradient (0–100%) of 1 M NaCl in buffer A at a flow rate of 1 mL min^−1. The active fractions were collected, pooled, dialyzed against 25 mM Tris-HCl pH 7.5 and loaded on a Superdex 200 PC 3.2/30 column (Pharmacia Biotech, Stockholm, Sweden) connected to a SMART System (Pharmacia Biotech, Stockholm, Sweden). The bound proteins were eluted with 25 mM Tris-HCl buffer, pH 7.5, containing 50 mM NaCl, at a flow rate of 0.1 mL min^−1. The active fractions were collected, pooled, dialyzed against 25 mM Tris-HCl pH 7.5 and stored in the same buffer supplemented with 5% glycerol. Enzyme purification was monitored using Ac-Met-7-amino-4-methylcoumarin (AMC) as substrate. Active fractions were analyzed by SDS-PAGE (12%) in order to evaluate the enrichment of the protein during the various purification steps. The protein was also characterized by Western Blot analysis. Aliquots of protein samples were subjected to SDS-PAGE (8%), and then electroblotted onto PVDF membranes (ImmobilonTM, Millipore, Milan, Italy). Membranes were next incubated with the specific primary antibody (sc-102311, 1:5000, Santa Cruz Biotechnology, USA) and then with the horseradish peroxidase-conjugated secondary antibody for 1 h at 37 °C (1:5000, Santa Cruz Biotechnology, Dallas, TX, USA). The immune complexes formed were visualized by enhanced chemiluminescence and autoradiography, according to the manufacturer’s protocol (Amersham Biosciences, Amersham, UK). Molecular mass of the native enzyme was established by gel filtration chromatography on a Superdex 200 PC 3.2/30 column (Pharmacia Biotech, Stockholm, Sweden), connected to a SMART system (Pharmacia Biotech, Stockholm, Sweden), and calibrated with BioRad gel filtration standards (BioRad, Milano, Italy; code 151-1901). The enzyme inhibition assay was performed on APEH preparation using the selective and potent inhibitor AA74-1 (SML0358, Sigma-Aldrich, Milano, Italy). Mixtures containing appropriate amount of inhibitor (62 µM) and APEH sample (0.7 μg) were pre-incubated for 30 min at 37 °C; then the substrate Ac-Met-7-amino-4-methylcoumarin (AMC) was added to the assay mixture and the enzymatic activity was followed as previously described. Control samples were prepared by pre-incubating the same amounts of APEH without the inhibitor and then assayed following the same procedure.
In total, 10 nmol/200 μL of each molecule was incubated with APEH partially purified from human blood cells (0.7 μg, 24.000 total units) at 37 °C for 48 h in Tris-HCl 25 mM pH 7.5. […]

APEH = APEH partially purified from human blood cells (0.7 μg, 24.000 total units) in Tris-HCl 25 mM pH 7.5; conditions: 37 °C, up to 48 h

% fragment cleaved on carboxy side of H59 (Ac-...HTH, lacking LVQQA), percentage of the initial substrate [1] [%] | % fragment cleaved on carboxy side of Q62 (Ac-...HTHLVQ, lacking QA), percentage of the initial substrate [1] | % intact peptide left after APEH exposure (percentage of the initial substrate) [1] [%] | % Degradation (overall % of peptide degraded upon exposure to APEH) [1] | cleaved bond (APEH) | Molecule | other results
16.5 | 0.3% | 83.2 | 16.8% | – | CC(=O)N[C@@H](CCC(=O)O)C(=O)N[C@@H](Cc1ccc(O)cc1)C(=O)N[C@@H](CC[S+](C)[O-])C(=O)N[C@@H](C)C(=O)N[C@@H](C)C(=O)N[C@@H](CCC(N)=O)C(=O)N[C@@H](CCCCN)C(=O)N[C@@H](Cc1ccc(O)cc1)C(=O)N1CCC[C@H]1C(=O)N[C@@H](Cc1c[nH]cn1)C(=O)N[C@H](C(=O)N[C@@H](Cc1c[nH]cn1)C(=O)N[C@@H](CC(C)C)C(=O)N[C@H](C(=O)N[C@@H](CCC(N)=O)C(=O)N[C@@H](CCC(N)=O)C(=O)N[C@@H](C)C(N)=O)C(C)C)[C@@H](C)O (stereo partly drawn) [GDF11[48-64] F51M52AA ox] (Ac-EY[Met(O)]AAQKYPHTHLVQQA-NH2) | –
– | – | – | – | Q62-Q; also recorded: H59-L, major | Ac-EYAAM(ox)QKYPHTHLVQQA-NH2 | –
– | – | – | – | Q62-Q; also recorded: H59-L | Ac-EAM(ox)FM(ox)QKYPHTHLVQQA-NH2 | –
– | – | – | – | Q62-Q; also recorded: H59-L, major | Ac-EYM(ox)AAQKYPHTHLVQQA-NH2 | –
11.7 | 3.3% | 85.0 | 15.0% | – | CC(=O)N[C@@H](CCC(=O)O)C(=O)N[C@@H](Cc1ccc(O)cc1)C(=O)N[C@@H](CC[S+](C)[O-])C(=O)N[C@@H](C)C(=O)N[C@@H](CC[S+](C)[O-])C(=O)N[C@@H](CCC(N)=O)C(=O)N[C@@H](CCCCN)C(=O)N[C@@H](Cc1ccc(O)cc1)C(=O)N1CCC[C@H]1C(=O)N[C@@H](Cc1c[nH]cn1)C(=O)N[C@H](C(=O)N[C@@H](Cc1c[nH]cn1)C(=O)N[C@@H](CC(C)C)C(=O)N[C@H](C(=O)N[C@@H](CCC(N)=O)C(=O)N[C@@H](CCC(N)=O)C(=O)N[C@@H](C)C(N)=O)C(C)C)[C@@H](C)O (stereo partly drawn) [GDF11[48-64] F51A ox] (Ac-EY[Met(O)]A[Met(O)]QKYPHTHLVQQA-NH2) | –
– | – | – | – | Q62-Q; also recorded: H59-L, major | Ac-EYM(ox)AM(ox)QKYPHTHLVQQA-NH2 | –
– | – | – | – | – | Ac-EYM(ox)FM(ox)QEYPHTHLVQQA-NH2 | not cleaved (APEH): did not undergo cleavage on Q62
11.5 | 10.2% | 78.3 | 21.7% | – | CC(=O)N[C@@H](CCC(=O)O)C(=O)N[C@@H](C)C(=O)N[C@@H](CC[S+](C)[O-])C(=O)N[C@@H](Cc1ccccc1)C(=O)N[C@@H](CC[S+](C)[O-])C(=O)N[C@@H](CCC(N)=O)C(=O)N[C@@H](CCCCN)C(=O)N[C@@H](Cc1ccc(O)cc1)C(=O)N1CCC[C@H]1C(=O)N[C@@H](Cc1c[nH]cn1)C(=O)N[C@H](C(=O)N[C@@H](Cc1c[nH]cn1)C(=O)N[C@@H](CC(C)C)C(=O)N[C@H](C(=O)N[C@@H](CCC(N)=O)C(=O)N[C@@H](CCC(N)=O)C(=O)N[C@@H](C)C(N)=O)C(C)C)[C@@H](C)O (stereo partly drawn) [GDF11[48-64] Y49A ox] (Ac-EA[Met(O)]F[Met(O)]QKYPHTHLVQQA-NH2) | % fragment cleaved on carboxy side of H59 (Ac-...HTH, lacking LVQQA), percentage of the initial substrate ([1]; listed as Y49A): about 11%
– | – | 100 | – | – | Ac-EYAFAQKYPHTHLVQQA-NH2 [GDF11[48-65] M50M52AA, control peptide where the two methionines were replaced with alanine residues] | –
– | – | – | – | – | Ac-EYAFAQKYPHTHLVQQA-NH2 | not cleaved (APEH): 100% intact; N.D. (not degraded) after 48 h
18.7 | did not undergo cleavage | 81.3 | 18.7% | – | CC(=O)N[C@@H](CCC(=O)O)C(=O)N[C@@H](Cc1ccc(O)cc1)C(=O)N[C@@H](CC[S+](C)[O-])C(=O)N[C@@H](Cc1ccccc1)C(=O)N[C@@H](CC[S+](C)[O-])C(=O)N[C@@H](CCC(N)=O)C(=O)N[C@@H](CCC(=O)O)C(=O)N[C@@H](Cc1ccc(O)cc1)C(=O)N1CCC[C@H]1C(=O)N[C@@H](Cc1c[nH]cn1)C(=O)N[C@H](C(=O)N[C@@H](Cc1c[nH]cn1)C(=O)N[C@@H](CC(C)C)C(=O)N[C@H](C(=O)N[C@@H](CCC(N)=O)C(=O)N[C@@H](CCC(N)=O)C(=O)N[C@@H](C)C(N)=O)C(C)C)[C@@H](C)O (stereo partly drawn) [GDF11[48-64] K54E ox] (Ac-EY[Met(O)]F[Met(O)]QEYPHTHLVQQA-NH2) | –
11.3 | 2.0% | 86.7 | about 13% | – | CC(=O)N[C@@H](CCC(=O)O)C(=O)N[C@@H](Cc1ccc(O)cc1)C(=O)N[C@@H](C)C(=O)N[C@@H](C)C(=O)N[C@@H](CC[S+](C)[O-])C(=O)N[C@@H](CCC(N)=O)C(=O)N[C@@H](CCCCN)C(=O)N[C@@H](Cc1ccc(O)cc1)C(=O)N1CCC[C@H]1C(=O)N[C@@H](Cc1c[nH]cn1)C(=O)N[C@H](C(=O)N[C@@H](Cc1c[nH]cn1)C(=O)N[C@@H](CC(C)C)C(=O)N[C@H](C(=O)N[C@@H](CCC(N)=O)C(=O)N[C@@H](CCC(N)=O)C(=O)N[C@@H](C)C(N)=O)C(C)C)[C@@H](C)O (stereo partly drawn) [GDF11[48-64] M50F51AA ox] (Ac-EYAA[Met(O)]QKYPHTHLVQQA-NH2) | % fragment cleaved on carboxy side of H59 (Ac-...HTH, lacking LVQQA), percentage of the initial substrate ([1]; listed as M50F51AA): about 11%; % Degradation (overall % of peptide degraded upon exposure to APEH) ([1]; listed as GDF11[48-64]ox M50F51AA): 13.3%
